Measured values as given in publication PMC5104426, “Screening a Phage Display Library for Two Novel OmpU-Binding Peptides with Adhesion Antagonistic Activity against Vibrio mimicus” (PLoS ONE, 2016).

Columns and labels:
[1] = test system: rOmpU fusion protein adhesion to EPC cells; assay: Fluorescence-based adhesion assay: rOmpU protein adhesion to EPC cells; type: cell-based, Vibrio mimicus; conditions: 500 μg/mL peptide mixed with equal volume of 500 μg/mL rOmpU, 1 h 28°C, then 1 h on fixed EPC cells; anti-OmpU/FITC immunofluorescence; triplicate
Method: Synthetic OmpU-binding peptides were measure for their ability to antagonize OmpU protein adhesion to EPC cells by fluorescence-based adhesion assay. Briefly, EPC cells (1 × 10^6 cells/mL) were seeded in 24-well cell plate containing coverslip (Corning, NY, USA) and cultured to 80% confluence. The cells were gently washed 3 times with PBS and fixed with 4% paraformaldehyde at room temperature for 15 min. After 3 washes with PBS, cells were permeabilized with 0.5% Triton X-100 (500 μL/well) for 15 min. The cells were then washed 3 times with PBS and blocked with 2% BSA for 30 min. Subsequently, 500 μg/mL of each OmpU-binding peptide or irrelevant control peptide (used as negative control) solution were respectively mixed with an equal volume of 500 μg/mL rOmpU fusion protein, and the mixture was incubated for 1 h at 28°C and added to each well. The plates were incubated for 1 h at 28°C. After 3 washes, purified rabbit anti-OmpU antibody (prepared in our previous studies) at a dilution of 1:200 in PBS was added to each well and incubated for 1 h at 28°C, followed by 3 washes in PBS. A 1:100 dilution of FITC (fluorescein isothiocyanate)-labeled goat anti-rabbit IgG (Jackson ImmunoResearch Laboratories, Inc., USA) was added to each well and incubated in the dark for 1 h. After 3 washes in PBS, 4,6-Diamidino-2-phenylindole dihydrochloride (DAPI; Ziyi Reagent Co., Shanghai, China) was used to stain the nucleus, and the coverslips were observed under a fluorescence microscope. Each experiment was performed in triplicate, each sample being tested in three wells.

[2] = test system: V. mimicus 04–14 isolate adhesion to EPC cells; assay: Peptide adhesion inhibition test: V. mimicus adhesion to EPC cells; type: cell-based, Vibrio mimicus; conditions: 500 μg/mL peptide mixed with equal volume of V. mimicus 04–14 (2 × 10^7 CFU/mL), 1 h 28°C, then 1 h on EPC cells, crystal violet, 30 cells counted, mean ± SD, triplicate
Method: When EPC cells grown in 24-well plate containing coverslips formed a confluent monolayer, the medium was changed to RPMI-1640 medium without serum and antibiotics for 2 h. Subsequently, 500 μg/mL of each OmpU-binding peptide or unrelated control peptide solution were respectively mixed with an equal volume of V. mimicus isolate 04–14 suspension (2 × 10^7 CFU/mL) and incubated for 1 h at 28°C. The mixture was added to each well, and then the plates were incubated for 1 h at 28°C. After 3 times washes, EPC cells were fixed with cooled methanol for 10 min, stained with crystal violet and examined under a light microscope at a magnification of ×1,000. Thirty cells were randomly selected to count the number of adhering bacterial per slide. Each experiment was performed in triplicate, with each sample being repeated in 3 cell wells.

TGYICDEMFCKL [P3]
green fluorescence on the surface of EPC cells (surface-retained rOmpU) [1]: Obvious green fluorescence
average number of adhesion around each cell [2]: 20.2 ± 0.5
